# Measured values as given in PubChem BioAssay (NCI).
#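 48-hour exposure; five concentrations; linearly interpolated endpoints. GI50 = concentration required for 50% inhibition of growth. At the TGI there is no net growth.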
# What was measured:
# Assay in all cases: NCI tumour cell line growth inhibition, 48 h
# [1] = tested on: HS 578T breast
# [2] = tested on: SW-620 colon
# [3] = tested on: BT-549 breast
# [4] = tested on: A549 NSCLC
# [5] = tested on: OVCAR-8 ovarian
# [6] = tested on: MDA-MB-231 breast
# [7] = tested on: 786-0 renal
# [8] = tested on: KM12 colon
# [9] = tested on: MOLT-4 leukemia
# [10] = tested on: HL-60(TB) leukemia
SMILES,TGI [1],TGI [2],TGI [3],TGI [4],TGI [5],TGI [6],TGI [7],TGI [8],TGI [9],TGI [10],GI50 [1],GI50 [2],GI50 [3],GI50 [4],GI50 [5],GI50 [6],GI50 [7],GI50 [8],GI50 [9],GI50 [10]
COc1cc(-c2[nH]ccc2Cl)oc1C1=C2N=C3C=C2C(C(C)C)C1CCCCCCCC3 (centres undefined),1.41 µM,1.5 µM,2.32 µM,2.88 µM,1.83 µM,1.56 µM,2.34 µM,2.83 µM,1.74 µM,0.943 µM,,,,,,,,,,
CCC[C@H](N[C@@H]1CCc2cc(F)cc(F)c2C1)C(=O)Nc1cn(C(C)(C)CNCC(C)(C)C)cn1,64.4 µM,> 100 µM,37.8 µM,> 100 µM,> 100 µM,29.3 µM,54.2 µM,> 88.7 µM,> 68.1 µM,43.4 µM,15.3 µM,25 µM,11.5 µM,23.2 µM,27.5 µM,10.2 µM,13.5 µM,24.1 µM,8.03 µM,16.3 µM
O=C(O)C1C2CC3C(OC(=O)C31)C2Br (centres undefined),> 100 µM,> 100 µM,> 100 µM,> 100 µM,> 100 µM,> 100 µM,> 100 µM,> 100 µM,> 58.1 µM,> 23.4 µM,,,,,,,,,,
CC(C)=CCc1c(O)cc(/C=C/c2cc(O)c3c(c2)C[C@@H]2C(C)(C)[C@H](O)[C@H](O)C[C@@]2(C)O3)cc1O,> 2.21 µM,1.88 µM,> 7.23 µM,> 10 µM,> 10 µM,> 10 µM,> 6.26 µM,4.11 µM,0.0148 µM,3.05 µM,< 0.001 µM,0.11 µM,0.0553 µM,0.249 µM,1.92 µM,1.66 µM,< 0.001 µM,0.59 µM,< 0.001 µM,< 0.001 µM
CCOC(=O)CC1(O)C=CC(=O)C=C1,15.3 mg/L,4.39 mg/L,3.67 mg/L,16.4 mg/L,1.13 mg/L,1.31 mg/L,2 mg/L,0.738 mg/L,1.61 mg/L,24.3 mg/L,2.13 mg/L,1.68 mg/L,1.48 mg/L,4.95 mg/L,0.425 mg/L,0.443 mg/L,0.596 mg/L,0.33 mg/L,0.4 mg/L,1 mg/L
CCOc1ccccc1/C=C1\NC(=O)N(/C=C2\C(=O)Oc3ccccc3C2=O)C1=O,> 100 µM,> 100 µM,> 100 µM,> 100 µM,> 100 µM,> 100 µM,> 100 µM,> 100 µM,64.3 µM,74.4 µM,,,,,,,,,,
CS(=O)(=O)CCNCc1ccc(-c2ccc3ncnc(Nc4ccc(OCc5cccc(C(F)(F)F)c5)cc4)c3c2)o1,> 19.4 µM,10.1 µM,> 21.8 µM,> 25 µM,> 21.9 µM,14.1 µM,8.85 µM,13.2 µM,> 20.9 µM,10.9 µM,7.02 µM,5.2 µM,9.57 µM,6.49 µM,6.91 µM,6.34 µM,4.61 µM,5.74 µM,4.87 µM,4.96 µM
CC(NS(C)(=O)=O)c1ccccc1 (centres undefined),> 100 µM,> 100 µM,> 100 µM,> 100 µM,> 100 µM,> 100 µM,> 100 µM,> 100 µM,> 100 µM,> 100 µM,,,,,,,,,,
C#C[C@]1(O)CC[C@H]2[C@@H]3CC=C4c5sc(N=C(N)N)nc5CC[C@]4(C)[C@H]3CC[C@@]21C,1.11 µM,1.96 µM,2.49 µM,2.72 µM,4.53 µM,2.66 µM,1.81 µM,2.55 µM,1.01 µM,1.92 µM,0.243 µM,0.541 µM,1.08 µM,0.865 µM,1.63 µM,1.14 µM,0.453 µM,1.1 µM,0.297 µM,0.425 µM
CN1CCC2(CC1)C(=O)N(N1CCCCCC1)C(=O)N2c1ccccc1,> 100 µM,> 100 µM,> 100 µM,> 100 µM,> 100 µM,> 100 µM,> 100 µM,> 100 µM,> 100 µM,> 100 µM,,,,,,,,,,
CC(=O)/C=C/C1=C(c2cc3ccccc3s2)c2ccccc2CC1,> 100 µM,> 100 µM,> 100 µM,> 100 µM,> 100 µM,88.2 µM,> 100 µM,42.2 µM,> 100 µM,98.2 µM,52.5 µM,32.6 µM,33.6 µM,33 µM,39.4 µM,26.2 µM,33.2 µM,18.5 µM,13.6 µM,16.4 µM
Cn1c(=O)cc2c3c(c(NCCCO)ccc31)C(=O)c1ccccc1-2,> 100 µM,> 100 µM,> 100 µM,> 100 µM,> 100 µM,> 100 µM,> 100 µM,> 100 µM,> 100 µM,> 100 µM,3.68 µM,0.875 µM,6.67 µM,3.48 µM,1.48 µM,4.77 µM,1.53 µM,6.34 µM,2.07 µM,2.98 µM
CN1C(=O)CNC(=O)[C@H](NC(=O)c2nc3ccccc3cc2O)CSSC[C@H]1C(=O)NCCc1nc2ccccc2cc1O,67 µM,35.3 µM,51.7 µM,> 100 µM,53.9 µM,27.7 µM,49 µM,47.7 µM,14.8 µM,5.1 µM,21.5 µM,5.65 µM,14.3 µM,32.5 µM,20.8 µM,5.42 µM,22.1 µM,0.96 µM,1.4 µM,1.22 µM
O=C1c2ccccc2C(=O)N1c1ccc(S(=O)(=O)Nc2ncccn2)cc1,> 100 µM,> 100 µM,> 100 µM,> 100 µM,> 100 µM,> 100 µM,> 100 µM,> 100 µM,> 100 µM,> 100 µM,> 100 µM,> 100 µM,> 100 µM,> 100 µM,> 100 µM,> 100 µM,> 100 µM,> 100 µM,> 100 µM,> 100 µM
COc1cc(CSc2nc3ccc(C)cc3c(=O)n2Cc2ccccc2)cc(OC)c1OC,48.8 µM,> 100 µM,77.5 µM,> 100 µM,> 100 µM,> 100 µM,65.6 µM,> 100 µM,> 100 µM,> 100 µM,2.57 µM,1.56 µM,7.07 µM,1.72 µM,4.41 µM,3.26 µM,7.49 µM,1.08 µM,4.57 µM,3.3 µM
CCCCCCCCCCCCCCCc1cc(O)ccc1N,99.4 µM,> 100 µM,> 74.7 µM,> 100 µM,> 100 µM,> 100 µM,37.2 µM,> 100 µM,> 24.8 µM,0.532 µM,17 µM,> 100 µM,0.305 µM,> 100 µM,43.5 µM,> 31.1 µM,2.77 µM,7.43 µM,0.183 µM,0.142 µM
O=C(Nc1cc(C(F)(F)F)ccc1F)Nc1n[nH]c2ccccc12,> 100 µM,> 100 µM,> 100 µM,> 100 µM,> 100 µM,> 100 µM,> 100 µM,> 100 µM,> 100 µM,> 100 µM,> 100 µM,> 100 µM,> 100 µM,> 100 µM,> 100 µM,> 100 µM,> 100 µM,> 100 µM,> 100 µM,> 100 µM
COC(=O)c1ccccc1NC(=O)/C(=N\NC(C)(C)C)C(C#N)c1nc(-c2ccc([N+](=O)[O-])cc2)cs1 (centres undefined),> 100 µM,> 100 µM,> 100 µM,> 100 µM,> 100 µM,> 100 µM,> 100 µM,> 100 µM,> 100 µM,> 100 µM,,,,,,,,,,
CN1CCN(c2ccc3nc(-c4cc(C(C)(C)C)c(O)c(C(C)(C)C)c4)[nH]c3c2)CC1,5.51 µM,4.06 µM,6.43 µM,11.5 µM,19.1 µM,4.31 µM,3.5 µM,4.32 µM,5.55 µM,4.52 µM,2.33 µM,2.33 µM,2.23 µM,3.26 µM,5 µM,2.09 µM,1.82 µM,1.8 µM,2.2 µM,2.22 µM
COc1cc(OC)c2c(=O)c(O)c(-c3ccc(OC)c(OC)c3)oc2c1,70.9 µM,> 100 µM,> 100 µM,> 100 µM,> 100 µM,> 100 µM,> 100 µM,> 100 µM,9.61 µM,44.3 µM,,,,,,,,,,
O=C1OC(c2ccc(O)c(-c3ccccc3)c2)(c2ccc(O)c(-c3ccccc3)c2)c2c(Cl)c(Cl)c(Cl)c(Cl)c21,> 100 µM,> 100 µM,> 100 µM,> 100 µM,> 100 µM,> 100 µM,> 100 µM,> 100 µM,> 100 µM,12.3 µM,,,,,,,,,,
CC(ONC(=O)c1cc(C(F)(F)F)cc(C(F)(F)F)c1)C(=O)Nc1ccc(Cl)cc1 (centres undefined),42.4 µM,23.7 µM,16.7 µM,> 41.3 µM,> 62.1 µM,36.5 µM,22 µM,29.4 µM,22.3 µM,28.3 µM,5.43 µM,5.64 µM,3.71 µM,4.68 µM,6.2 µM,8.7 µM,5.61 µM,5 µM,2.65 µM,3.86 µM
CC1(C)N=C(N)N=C(N)N1c1ccc(F)c(C(F)(F)F)c1,> 100 µM,> 100 µM,> 87.9 µM,,> 100 µM,> 100 µM,> 100 µM,> 100 µM,> 100 µM,> 100 µM,21.2 µM,0.233 µM,1.96 µM,0.31 µM,0.597 µM,> 100 µM,0.543 µM,1.81 µM,0.727 µM,0.438 µM
ClCCN(CCCl)c1ccc(-n2cnc3c(Cl)ncnc32)cc1,9.79 µM,3.29 µM,12.9 µM,29.7 µM,5.38 µM,11.1 µM,28.4 µM,19.5 µM,7.84 µM,6.58 µM,2.95 µM,1.76 µM,3.51 µM,12.5 µM,2.37 µM,3.28 µM,14 µM,6.16 µM,2.99 µM,2.5 µM
Cn1c(COC(=O)N2CCCCC2)nc2c(N3CCOCC3)nc(-c3ccccc3)nc21,2.91 µM,0.539 µM,2.26 µM,3.45 µM,2.57 µM,2.27 µM,2 µM,3.22 µM,2 µM,2.44 µM,0.698 µM,0.235 µM,1.01 µM,1.48 µM,1.03 µM,1.02 µM,0.732 µM,1.46 µM,0.353 µM,0.592 µM
O=C1C=C(Nc2ccccc2C(=O)CC(=O)C(=O)Nc2cccc(C(F)(F)F)c2)c2ccccc2C1=O,66.2 µM,48.6 µM,49.1 µM,> 89.8 µM,56.4 µM,> 91.1 µM,> 97.2 µM,> 95.9 µM,> 57.9 µM,24.2 µM,,,,,,,,,,
CCC(Sc1nnc2c3ccccc3n(CC)c2n1)C(=O)Nc1ccccc1OC (centres undefined),> 100 µM,> 100 µM,> 100 µM,> 100 µM,> 100 µM,> 100 µM,> 100 µM,> 100 µM,> 100 µM,6.91 µM,> 100 µM,> 100 µM,> 100 µM,6.4 µM,> 100 µM,52.5 µM,> 100 µM,91.3 µM,35 µM,3.02 µM
COc1cccc(/C=N\Nc2ccc([N+](=O)[O-])cn2)c1O,> 100 µM,> 100 µM,30 µM,46.3 µM,15.6 µM,96.2 µM,28.9 µM,51.5 µM,16.9 µM,17.7 µM,4.52 µM,3.94 µM,4.47 µM,4.26 µM,2.55 µM,3.95 µM,3.53 µM,6.04 µM,3.43 µM,3.13 µM
